Paper PMC5147005 (The Journal of Cell Biology, 2016)

Assays:
[1] = molecular target: T1, MFN1-MGD (minimal GTPase domain of human MFN1) (Homo sapiens, UniProt Q8IWA4, DEL365-693); test: isothermal titration calorimetry; type: binding
T1 sequence (Q8IWA4 1-364): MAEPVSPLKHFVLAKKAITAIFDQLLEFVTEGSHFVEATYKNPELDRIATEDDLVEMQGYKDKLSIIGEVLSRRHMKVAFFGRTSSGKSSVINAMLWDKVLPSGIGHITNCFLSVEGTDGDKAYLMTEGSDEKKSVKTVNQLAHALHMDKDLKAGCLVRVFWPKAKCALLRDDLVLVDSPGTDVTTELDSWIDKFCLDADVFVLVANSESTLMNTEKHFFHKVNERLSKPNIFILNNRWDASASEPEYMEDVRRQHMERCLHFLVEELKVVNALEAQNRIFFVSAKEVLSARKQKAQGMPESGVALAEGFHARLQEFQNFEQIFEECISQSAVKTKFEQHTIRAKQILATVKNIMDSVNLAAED
T1 sequence (Q8IWA4 694-741): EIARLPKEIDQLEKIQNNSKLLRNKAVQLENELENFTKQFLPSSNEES

[2] = molecular target: the molecule itself; test: AUC

With `Nc1nc2c(ncn2[C@@H]2O[C@H](COP(=O)(O)OP(=O)(O)O)[C@@H](O)[C@H]2O)c(=O)[nH]1` [GDP] the Kd [1] was 91.7 µM.

B1: human MFN1 minimal GTPase domain (MGD), wild type (domain or fragment)
chain: MAEPVSPLKHFVLAKKAITAIFDQLLEFVTEGSHFVEATYKNPELDRIATEDDLVEMQGYKDKLSIIGEVLSRRHMKVAFFGRTSSGKSSVINAMLWDKVLPSGIGHITNCFLSVEGTDGDKAYLMTEGSDEKKSVKTVNQLAHALHMDKDLKAGCLVRVFWPKAKCALLRDDLVLVDSPGTDVTTELDSWIDKFCLDADVFVLVANSESTLMNTEKHFFHKVNERLSKPNIFILNNRWDASASEPEYMEDVRRQHMERCLHFLVEELKVVNALEAQNRIFFVSAKEVLSARKQKAQGMPESGVALAEGFHARLQEFQNFEQIFEECISQSAVKTKFEQHTIRAKQILATVKNIMDSVNLAAEDGSGSGSGGSEIARLPKEIDQLEKIQNNSKLLRNKAVQLENELENFTKQFLPSSNEES
In the case of B1, the “stoichiometry N” value [2] is reported as 2.
